# Measured values reported in US8269000B2, “Substituted pyrimidine and triazine compounds” (Gruenenthal GmbH, priority 2008, dated 2012).
# Biological target: T1, rat B1R (Rattus norvegicus, UniProt P97583)
# T1 construct: expressed in transfected cells; host or cells: CHO K1 cells
# T1 sequence (P97583 1-337): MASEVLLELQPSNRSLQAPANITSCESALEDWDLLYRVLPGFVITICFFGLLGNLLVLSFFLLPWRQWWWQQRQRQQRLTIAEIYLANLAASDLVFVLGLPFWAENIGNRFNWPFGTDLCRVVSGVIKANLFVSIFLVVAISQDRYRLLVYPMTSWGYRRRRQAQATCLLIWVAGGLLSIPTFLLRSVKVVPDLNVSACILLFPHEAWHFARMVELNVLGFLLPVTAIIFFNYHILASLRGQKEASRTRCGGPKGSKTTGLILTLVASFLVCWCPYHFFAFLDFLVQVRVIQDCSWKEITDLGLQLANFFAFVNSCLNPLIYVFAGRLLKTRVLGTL
# Assay: FLIPR Ca2+ functional study on bradykinin receptor 1 (rB1R CHO K1 cells)
# Assay type: cell-based
# Settings: % inhibition rat B1R at 10 μM, 10 µM
# How it was run: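 Antagonism was calculated as % of maximal inhibition of the Ca2+ rise triggered by agonist at EC80 (Lys-Des-Arg9-bradykinin for hB1R, Des-Arg9-bradykinin for rB1R), added 10-20 min after test compound (10 μM or serial dilutions for IC50) to Fluo-4-loaded transfected CHO K1 cells on FLIPR. Duplicates or triplicates, ≥2 independent runs.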
row,% inh. (rat B1R) 10 μM,Structure (SMILES)
1,79%,"COc1cc(C)c(S(=O)(=O)N(C)CCOc2nccc(N(C)CCN3CCC(c4ccccc4)(N(C)C)CC3)n2)c(C)c1 [G_CC-098, N-[2-[4-[2-(4-dimethylamino-4-phenyl-piperidin-1-yl)-ethyl-methyl-amino]-pyrimidin-2-yl]oxy-ethyl]-4-methoxy-N,2,6-trimethyl-benzenesulfonic acid amide]"

# Same assay, conditions: CHO-K1, % inhibition rat B1R at 10 μM, read-out: % inh. (rat B1R) 10 μM
row,Structure (SMILES),inhibition at 10 µM
1,"COc1cc(C)c(S(=O)(=O)N2CC(Oc3nccc(N4CCN(CC5CCN(C)CC5)CC4)n3)C2)c(C)c1 [G_CC-077, 2-[1-[(4-methoxy-2,6-dimethyl-phenyl)sulfonyl]-azetidin-3-yl]oxy-4-[4-[(1-methyl-piperidin-4-yl)methyl]-piperazin-1-yl]-pyrimidine]",92%
2,"COc1cc(C)c(S(=O)(=O)N2CCCCC2COc2nccc(N3CCC(Oc4cnccn4)CC3)n2)c(C)c1 (stereo not drawn) [G_CC-079, 2-[[1-[(4-methoxy-2,6-dimethyl-phenyl)sulfonyl]-piperidin-2-yl]-methoxy]-4-(4-pyrazin-2-yloxy-piperidin-1-yl)-pyrimidine]",98%
3,"COc1cc(C)c(S(=O)(=O)N2CCCCC2COc2nccc(N3CCC(CCCN4CCCC4)(c4cccnc4)CC3)n2)c(C)c1 (stereo not drawn) [G_CC-080, 2-[[1-[(4-methoxy-2,6-dimethyl-phenyl)sulfonyl]-piperidin-2-yl]-methoxy]-4-[4-pyridin-3-yl-4-(3-pyrrolidin-1-yl-propyl)-piperidin-1-yl]-pyrimidine]",103%
4,"COc1cc(C)c(S(=O)(=O)N2CCCCC2COc2nccc(N3CCC(O)(c4ccccn4)CC3)n2)c(C)c1 (stereo not drawn) [G_CC-082, 1-[2-[[1-[(4-methoxy-2,6-dimethyl-phenyl)sulfonyl]-piperidin-2-yl]-methoxy]-pyrimidin-4-yl]-4-pyridin-2-yl-piperidin-4-ol]",73%
5,"COc1cc(C)c(S(=O)(=O)N2CCC[C@H]2COc2nccc(N3CCC(O)(c4ccccn4)CC3)n2)c(C)c1 [G_CC-083, 1-[2-[[(2S)-1-[(4-methoxy-2,6-dimethyl-phenyl)sulfonyl]-pyrrolidin-2-yl]-methoxy]-pyrimidin-4-yl]-4-pyridin-2-yl-piperidin-4-ol]",62%
6,"COc1cc(C)c(S(=O)(=O)N2CCC[C@H]2COc2nccc(N3CCC(c4nc(-c5ccncc5)no4)CC3)n2)c(C)c1 [G_CC-085, 5-[1-[2-[[(2S)-1-[(4-methoxy-2,6-dimethyl-phenyl)sulfonyl]-pyrrolidin-2-yl]-methoxy]-pyrimidin-4-yl]-piperidin-4-yl]-3-pyridin-4-yl-[1,2,4]oxadiazole]",101%
7,"COc1cc(C)c(S(=O)(=O)N2CCC[C@H]2COc2nccc(N3CCC(OCCN4CCCC4)(c4cccc(F)c4)CC3)n2)c(C)c1 [G_CC-086, 4-[4-(3-fluorophenyl)-4-(2-pyrrolidin-1-yl-ethoxy)-piperidin-1-yl]-2-[[(2S)-1-[(4-methoxy-2,6-dimethyl-phenyl)sulfonyl]-pyrrolidin-2-yl]-methoxy]-pyrimidine]",105%
8,"CCCCC1(N(C)C)CCN(c2ccnc(OCCN(C)S(=O)(=O)c3c(C)cc(OC)cc3C)n2)CC1 [G_CC-089, N-[2-[4-(4-butyl-4-dimethylamino-piperidin-1-yl)-pyrimidin-2-yl]oxy-ethyl]-4-methoxy-N,2,6-trimethyl-benzenesulfonic acid amide]",93%
9,"COc1cc(C)c(S(=O)(=O)N2c3ccccc3C[C@H]2COc2nccc(N3CCC(Oc4cnccn4)CC3)n2)c(C)c1 [G_CC-092, (2S)-1-[(4-methoxy-2,6-dimethyl-phenyl)sulfonyl]-2-[[4-(4-pyrazin-2-yloxy-piperidin-1-yl)-pyrimidin-2-yl]oxy-methyl]-2,3-dihydro-1H-indole]",85%
10,"CCCCC1(N(C)C)CCN(c2ccnc(OC[C@@H]3Cc4ccccc4N3S(=O)(=O)c3c(C)cc(OC)cc3C)n2)CC1 [G_CC-093, [4-butyl-1-[2-[[(2S)-1-[(4-methoxy-2,6-dimethyl-phenyl)sulfonyl]-2,3-dihydro-1H-indol-2-yl]-methoxy]-pyrimidin-4-yl]-piperidin-4-yl]-dimethyl-amine]",91%
11,"COc1cc(C)c(S(=O)(=O)N2c3ccccc3C[C@H]2COc2nccc(N(C)CCN3CCC(c4ccccc4)(N(C)C)CC3)n2)c(C)c1 [G_CC-094, 2-(4-dimethylamino-4-phenyl-piperidin-1-yl)-ethyl-[2-[[(2S)-1-[(4-methoxy-2,6-dimethyl-phenyl)sulfonyl]-2,3-dihydro-1H-indol-2-yl]-methoxy]-pyrimidin-4-yl]-methyl-amine]",102%
12,"CCCCC1(N(C)C)CCN(CCN(C)c2ccnc(OC[C@@H]3Cc4ccccc4N3S(=O)(=O)c3c(C)cc(OC)cc3C)n2)CC1 [G_CC-097, 2-(4-butyl-4-dimethylamino-piperidin-1-yl)-ethyl-[2-[[(2S)-1-[(4-methoxy-2,6-dimethyl-phenyl)sulfonyl]-2,3-dihydro-1H-indol-2-yl]-methoxy]-pyrimidin-4-yl]-methyl-amine]",101%
13,"COc1cc(C)c(S(=O)(=O)N(C)CCOc2nccc(N(C)CCCN3CCC(c4ccccc4)(N(C)C)CC3)n2)c(C)c1 [G_CC-100, N-[2-[4-[3-(4-dimethylamino-4-phenyl-piperidin-1-yl)-propyl-methyl-amino]-pyrimidin-2-yl]oxy-ethyl]-4-methoxy-N,2,6-trimethyl-benzenesulfonic acid amide]",89%
14,"COc1cc(C)c(S(=O)(=O)N2CCCCC2COc2nccc(N3CCC(c4nc(-c5ccncc5)no4)CC3)n2)c(C)c1 (stereo not drawn) [G_CC-103, 5-[1-[2-[[1-[(4-methoxy-2,6-dimethyl-phenyl)sulfonyl]-piperidin-2-yl]-methoxy]-pyrimidin-4-yl]-piperidin-4-yl]-3-pyridin-4-yl-[1,2,4]oxadiazole]",93%

# Continued, values first:
row,inhibition at 10 µM,Structure (SMILES)
1,105%,"COc1cc(C)c(S(=O)(=O)N2c3ccccc3C[C@H]2COc2nccc(N(C)CCCN3CCC(c4ccccc4)(N(C)C)CC3)n2)c(C)c1 [G_CC-076, 3-(4-dimethylamino-4-phenyl-piperidin-1-yl)-propyl-[2-[[(2S)-1-[(4-methoxy-2,6-dimethyl-phenyl)sulfonyl]-2,3-dihydro-1H-indol-2-yl]-methoxy]-pyrimidin-4-yl]-methyl-amine]"
2,98%,"COc1cc(C)c(S(=O)(=O)N2CCCCC2COc2nccc(N3CCC(Oc4ccccn4)CC3)n2)c(C)c1 (stereo not drawn) [G_CC-078, 2-[[1-[(4-methoxy-2,6-dimethyl-phenyl)sulfonyl]-piperidin-2-yl]-methoxy]-4-(4-pyridin-2-yloxy-piperidin-1-yl)-pyrimidine]"
3,88%,"COc1cc(C)c(S(=O)(=O)N2CCCCC2COc2nccc(N3CCCC3Cc3ccccn3)n2)c(C)c1 (stereo not drawn) [G_CC-081, 2-[[1-[(4-methoxy-2,6-dimethyl-phenyl)sulfonyl]-piperidin-2-yl]-methoxy]-4-[2-(pyridin-2-yl-methyl)-pyrrolidin-1-yl]-pyrimidine]"
4,83%,"COc1cc(C)c(S(=O)(=O)N2CCC[C@@H]2COc2nccc(N3CCCC3Cc3ccccn3)n2)c(C)c1 (stereo partly drawn) [G_CC-084, 2-[[(2R)-1-[(4-methoxy-2,6-dimethyl-phenyl)sulfonyl]-pyrrolidin-2-yl]-methoxy]-4-[2-(pyridin-2-yl-methyl)-pyrrolidin-1-yl]-pyrimidine]"
5,101%,"CCCCC1(N(C)C)CCN(c2ccnc(OC[C@@H]3CCCN3S(=O)(=O)c3c(C)cc(OC)cc3C)n2)CC1 [G_CC-087, [4-butyl-1-[2-[[(2S)-1-[(4-methoxy-2,6-dimethyl-phenyl)sulfonyl]-pyrrolidin-2-yl]-methoxy]-pyrimidin-4-yl]-piperidin-4-yl]-dimethyl-amine]"
6,100%,"COc1cc(C)c(S(=O)(=O)N2CCC[C@H]2COc2nccc(N(C)CCN3CCC(c4ccccc4)(N(C)C)CC3)n2)c(C)c1 [G_CC-088, 2-(4-dimethylamino-4-phenyl-piperidin-1-yl)-ethyl-[2-[[(2S)-1-[(4-methoxy-2,6-dimethyl-phenyl)sulfonyl]-pyrrolidin-2-yl]-methoxy]-pyrimidin-4-yl]-methyl-amine]"
7,101%,"COc1cc(C)c(S(=O)(=O)N2CCC[C@H]2COc2nccc(N(C)CCN3CCC(c4ccccc4)(N4CCCC4)CC3)n2)c(C)c1 [G_CC-091, [2-[[(2S)-1-[(4-methoxy-2,6-dimethyl-phenyl)sulfonyl]-pyrrolidin-2-yl]-methoxy]-pyrimidin-4-yl]-methyl-[2-(4-phenyl-4-pyrrolidin-1-yl-piperidin-1-yl)-ethyl]-amine]"
8,101%,"COc1cc(C)c(S(=O)(=O)N2c3ccccc3C[C@H]2COc2nccc(N(C)CCN3CCC(c4ccccc4)(N4CCCC4)CC3)n2)c(C)c1 [G_CC-096, [2-[[(2S)-1-[(4-methoxy-2,6-dimethyl-phenyl)sulfonyl]-2,3-dihydro-1H-indol-2-yl]-methoxy]-pyrimidin-4-yl]-methyl-[2-(4-phenyl-4-pyrrolidin-1-yl-piperidin-1-yl)-ethyl]-amine]"
9,105%,"COc1cc(C)c(S(=O)(=O)N2CCCCC2COc2nccc(N(C)CCCN3CCC(c4ccccc4)(N(C)C)CC3)n2)c(C)c1 (stereo not drawn) [G_CC-101, 3-(4-dimethylamino-4-phenyl-piperidin-1-yl)-propyl-[2-[[1-[(4-methoxy-2,6-dimethyl-phenyl)sulfonyl]-piperidin-2-yl]-methoxy]-pyrimidin-4-yl]-methyl-amine]"
